{"source": "paper PMC6862289", "about": "“Metabolic Profile, Bioavailability and Toxicokinetics of Zearalenone-14-Glucoside in Rats after Oral and Intravenous Administration by Liquid Chromatography High-Resolution Mass Spectrometry and Tandem Mass Spectrometry” (International Journal of Molecular Sciences, 2019)", "key": {"estrogenic receptors": {"tested_on": "estrogenic receptors", "design": "method as in PMID 32625539", "details": "compared with ZEN; cited from earlier work"}, "[1]": {"assay": "Toxicokinetics of ZEN-14G in rats after oral and intravenous administration (plasma LC-MS/MS, non-compartmental analysis)", "assay_type": "in vivo, Wistar rats", "details": "for k el: mean ± SD, n = 12, read-out: λZ (elimination rate constant) (converted); for AUC(0-inf): read-out: AUC0-infinity; for half-life: read-out: Elimination t1/2 (converted); for amount observed in plasma after intravenous administration of ZEN-14G: i.v. ZEN-14G 0.75 mg/kg, Figure 3D; for level detected in plasma after oral administration of ZEN-14G: p.o. ZEN-14G 0.75 mg/kg, Figure 3A", "description": "The validated LC-MS/MS method was eligible for the toxicokinetic characterization of ZEN-14G in rats. The obtained data (above the LOQ) were analyzed via non-compartmental analysis using WinNonlin 6.3 software (Pharsight Co. Mountain View, CA, USA). The area under the plasma concentration–time curve (AUC) was obtained using the trapezoidal rule with extrapolation to infinity. […] The half-life period of ZEN in pigs was much longer than ZEN-14G in rats, which may be attributed to enterohepatic circulation. […] The low absolute bioavailability of ZEN-14G might be due to the deglycosylation of ZEN-14G to ZEN. The CL and VZ are extremely different between oral (p.o.) and intravenous (i.v.) administration. The VZ depends on the total mass absorbed and the plasma concentration. For oral administration, the low plasma concentration of ZEN-14G may because ZEN-14G appeared to be distributed into a very large volume or rapidly biotransformed into other compounds. The low oral bioavailability and low plasma concentration of ZEN-14G led to the […] VZ than that of i.v. administration. […] CL is the volume of blood from which a compound is removed per unit time. In comparison with p.o., much more of ZEN-14G was absorbed in the plasma after intravenous injection (i.v.)—more volume of blood cleared of ZEN-14G per unit time.\nZEN-14G was dissolved in aqueous solution containing 0.5% carboxymethyl cellulose. We selected twelve Wistar rats (half male and half female, with an average weight of 180 g, obtained from Vital River Laboratory Animal Technology Co. Ltd (Beijing, China). The rats were raised for one week for acclimation before the experiment, and the rats went through a 12 h fast before dosing. Six rats were treated with ZEN-14G via oral gavage at a dosage of 0.75 mg/kg body weight followed by blood collection at 0.083, 0.16, 0.25, 0.5, 0.75, 1.0, 1.5, 2, 4, and 6 h post administration while the other six rats were administered with the same amount of ZEN-14G intravenously and the blood samples were collected at the same time points. After a one-week withdrawal period, a crossover design was used for the following experiment where the rats administered orally would receive intravenous administration and vice versa. […] All the animal experiments complied with the National Institutes of Health guide for the care and use of laboratory animals, which has been approved on 20 March 2018 by the ethical committee of China Agricultural University (Beijing, China) (2018-SYXK-0238).\nWe extracted 100 μL of plasma using 100 μL of acetonitrile followed by centrifugation for 5 min at 14,000× g at 4 °C. This analytical method was established based on the published literature. The supernatant was gathered, evaporated until dry and eventually re-dissolved in 100 μL of 15% acetonitrile. This analytical method was soundly validated in plasma before application.\nThe separation and identification of ZEN-14G and its metabolites were performed on a Phenomenex column (Kinetex 50 mm × 2.1 mm i.d. 1.7 μm particle size, C18) using an ultra-high-performance liquid chromatograph (Agilent 1260 Infinity) coupled to a triple quadrupole mass spectrometer (Agilent 6495) under negative ESI mode (Agilent Technologies, Palo Alto, CA, USA). The chromatographic separations were achieved through a gradient elution program. Mobile phase A was water containing 0.1% formic acid, and phase B was acetonitrile containing 0.1% formic acid. The gradient elution program for phase B was listed as: 0–1 min, 0%–15%; 1–2 min, 15%–45%; 2–4 min, 45%–90%; 4–5 min, 90%; 5–5.1 min, 90%–15%; and 5.1–6.0 min, 15%. The key parameters for the mass spectrometer were as follows: capillary voltage (3.5 kV); gas temperature (250 °C); gas flow (11 L/min); nebulizer (45 psi); sheath gas temperature (350 °C); and sheath gas flow (12 L/min). Furthermore, the detailed information on precursor ions and the product ions of ZEN-14G and quantifiable products are described in Table S1. […]"}, "[2]": {"details": "broiler chickens; cited from earlier work"}, "[3]": {"details": "pigs; cited from earlier work"}, "[4]": {"details": "rats; cited from earlier work"}, "[5]": {"details": "poultry; cited from earlier work"}, "[6]": {"details": "female pigs; cited from earlier work"}, "[7]": {"details": "both sexes, Wistar, rat, in vivo, iv, 0.75 mg/kg body weight"}, "[8]": {"details": "both sexes, Wistar, rat, in vivo, po, 0.75 mg/kg body weight"}}, "note": "Like-named read-outs stand apart in the source and are kept apart here.", "data": [{"compound": "CC1CCCC(=O)CCC/C=C/c2cc(OC3OC(CO)C(O)C(O)C3O)cc(O)c2C(=O)O1", "note": "(stereo not drawn) [ZEN-14G, Zearalenone-14-glucoside]", "values": [{"measurement": "estrogenic potency", "setting": "estrogenic receptors", "result": "comparable to that of ZEN"}, {"measurement": "visible adverse phenomena", "setting": "[1]; 0.75 mg/kg body weight, any route of administration (p.o., i.v.)", "result": "No visible adverse phenomena"}, {"measurement": "bioavailability", "setting": "[1]; both sexes, Wistar, rat, in vivo, 0.75 mg/kg, AUC oral / AUC intravenous × 100%, 0.75 mg/kg body weight, read-out: F (absolute oral bioavailability)", "result": "~9", "unit": "%"}, {"measurement": "AUC(0-t)", "setting": "[1]; [7]", "result": "1.79 ± 0.03", "unit": "ng·h/mL"}, {"measurement": "k el", "setting": "[1]; [7]", "result": 0.000883, "unit": "s⁻¹"}, {"measurement": "AUC(0-inf)", "setting": "[1]; [7]", "result": "1.8 ± 0.02", "unit": "ng·h/mL"}, {"measurement": "half-life", "setting": "[1]; [7]", "result": "13.2 ± 1.8", "unit": "min"}, {"measurement": "MRT", "setting": "[1]; both sexes, Wistar, rat, in vivo, iv, 0.75 mg/kg, i.v., 0.75 mg/kg body weight, read-out: MRT (mean residence time)", "result": "12 ± 1.8", "unit": "min"}, {"measurement": "Vd", "setting": "[1]; both sexes, Wistar, rat, in vivo, iv, 0.75 mg/kg, i.v., 0.75 mg/kg body weight, read-out: VZ (apparent volume of distribution)", "result": "7.25 ± 1.23", "unit": "L/kg"}, {"measurement": "Vd", "setting": "[1]; both sexes, Wistar, rat, in vivo, iv, 0.75 mg/kg, i.v., 0.75 mg/kg body weight, read-out: VZ (apparent volume of distribution), as printed in text", "result": 87.2, "unit": "L/kg"}, {"measurement": "AUC(0-t)", "setting": "[1]; [8]", "result": "0.11 ± 0.03", "unit": "ng·h/mL"}, {"measurement": "Cmax", "setting": "[1]; [8]", "result": "0.2 ± 0.03", "unit": "ng/mL"}, {"measurement": "Tmax", "setting": "[1]; [8]", "result": "4.98 ± 0.6", "unit": "min"}, {"measurement": "k el", "setting": "[1]; [8]", "result": 0.0002, "unit": "s⁻¹"}, {"measurement": "AUC(0-inf)", "setting": "[1]; [8]", "result": "0.16 ± 0.02", "unit": "ng·h/mL"}, {"measurement": "CL/F", "setting": "[1]; both sexes, Wistar, rat, in vivo, po, 0.75 mg/kg body weight, read-out: CL (apparent total body clearance) (converted)", "result": 75, "unit": "mL/min/kg"}, {"measurement": "half-life", "setting": "[1]; [8]", "result": "57.6 ± 4.2", "unit": "min"}, {"measurement": "CL (apparent total body clearance)", "setting": "[1]; i.v., 0.75 mg/kg body weight", "result": "83.7 ± 10.3", "unit": "mL/min/kg"}, {"measurement": "VZ (apparent volume of distribution)", "setting": "[1]; p.o., 0.75 mg/kg body weight", "result": "6.24 ± 0.73", "unit": "L/kg"}, {"measurement": "time point of the peak concentration", "setting": "[1]; p.o., first time point", "result": 5, "unit": "min"}]}, {"compound": "CC1CCC[C@H](O)CCC/C=C/c2cc(OC3OC(CO)C(O)C(O)C3O)cc(O)c2C(=O)O1", "note": "(stereo partly drawn) [α-ZEL-14G]", "values": [{"measurement": "amount observed in plasma after intravenous administration of ZEN-14G", "setting": "[1]", "result": "small amount"}]}, {"compound": "CC1=C[C@H]2O[C@@H]3[C@H](O[C@@H]4O[C@H](CO)[C@@H](O)[C@H](O)[C@H]4O)C[C@](C)([C@@]2(CO)[C@H](O)C1=O)[C@]31CO1", "note": "[DON-3G, deoxynivalenol-3-β-D-glucoside]", "values": [{"measurement": "absolute oral bioavailability", "setting": "[2]", "result": 3.79, "unit": "%"}, {"measurement": "absolute oral bioavailability", "setting": "[3]", "result": 16.1, "unit": "%"}]}, {"compound": "C[C@H]1CCCC(=O)CCC/C=C/c2cc(O)cc(O)c2C(=O)O1", "note": "[ZEN, Zearalenone]", "values": [{"measurement": "oral bioavailability", "setting": "[4]", "result": 10, "unit": "%"}, {"measurement": "oral bioavailability", "setting": "[5]", "result": 10, "unit": "%"}, {"measurement": "absolute oral bioavailability", "setting": "[6]", "result": "around 51.5%"}, {"measurement": "yield of ZEN in plasma relative to that of ZEN-14G", "setting": "[1]; after i.v. ZEN-14G 0.75 mg/kg body weight", "result": "approximately 4.5 times"}, {"measurement": "level detected in plasma after oral administration of ZEN-14G", "setting": "[1]", "result": "trace level"}]}, {"compound": "CC1CCC[C@H](O)CCC/C=C/c2cc(O)cc(O)c2C(=O)O1", "note": "(stereo partly drawn) [α-ZEL, α-zearalenol]", "values": [{"measurement": "amount observed in plasma after intravenous administration of ZEN-14G", "setting": "[1]", "result": "small amount"}, {"measurement": "level detected in plasma after oral administration of ZEN-14G", "setting": "[1]", "result": "trace level"}]}]}
